Assay [1] relates to heart allograft rejection. The assay can be described thus: Rat heart transplantation. Format: in vivo. The following applies: rat heart transplant, Lewis/DA, 30 mg/kg bid. The method, then: The strain combination used: Male Lewis (RT^1 haplotype) and DA (RT^1 haplotype). The animals are anaesthetised using inhalational isofluorane. […] The aorta is ligated and divided distal to the first branch and the brachiocephalic trunk is divided at the first bifurcation. The left pulmonary artery is ligated and divided and the right side divided but left open. All other vessels are dissected free, ligated and divided and the donor heart is removed into iced saline.
The recipient is prepared by dissection and cross-clamping of the infra-renal abdominal aorta and vena cava. The graft is implanted with end-to-side anastomoses, using 10/0 monofilament suture, between the donor brachiocephalic trunk and the recipient aorta and the donor right pulmonary artery to the recipient vena cava. The clamps are removed, the graft tethered retroabdominally, the abdominal contents washed with warm saline and the animal is closed and allowed to recover under a heating lamp. Graft survival is monitored by daily palpation of the beating donor heart through the abdominal wall. Rejection is considered to be complete when heart beat stops. Increases of graft survival are obtained in animals treated with a compound of formula I, II, III or IV or a pharmaceutically acceptable salt or solvate thereof administered orally at a daily dose of 10 to 30 mg/kg bid. […]

The subject of assay [2] is Balb/c spleen cells stimulated by irradiated or mitomycin C treated CBA spleen cells. The assay can be described thus: Murine mixed lymphocyte reaction (MLR). It counts as cell-based. Conditions: Mus musculus, 120 h, 5 days co-incubation, labeled precursor incorporation into DNA, read-out: IC50 (concentration resulting in 50% inhibition of cell proliferation). The procedure:
Spleen cells (0.5×10^6) from Balb/c mice (female, 8-10 weeks) are co-incubated for 5 days with 0.5×10^6 irradiated (2000 rads) or mitomycin C treated spleen cells from CBA mice (female, 8-10 weeks). The irradiated allogeneic cells induce a proliferative response in the Balb/c spleen cells which can be measured by labeled precursor incorporation into the DNA. […] The antiproliferative effect of the compounds on the Balb/c cells is measured at various dilutions and the concentration resulting in 50% inhibition of cell proliferation (IC50) is calculated.

The values that follow come from patent US20070232658A1, “Protein Kinase C Inhibitors for the Treatment of Autoimmune Diseases and of Transplant Rejiction” (priority 2004, published 2007).

Values joined by “and” are separate entries in the source; they are usually repeats but may differ in a detail not shown here. Identical values can stand only once.

Regarding `Cn1cc(C2=C(c3cn(C4CCN(Cc5ccccn5)CC4)c4ccccc34)C(=O)NC2=O)c2ccccc21` [Compound A, 3-(1-methyl-1H-indol-3-yl)-4-[1-{(1-pyridin-2-ylmethyl)-piperidin-4-yl}-1H-indol-3-yl]-pyrrole-2,5-dione], the “prolongation of graft survival” value in assay [1] was 14 days and 25 days and 26 days.
On to `Cn1cc(C2=C(c3cn(C4CCNCC4)c4ccccc34)C(=O)NC2=O)c2ccccc21` [Compound B, 3-(1-methyl-1H-indol-3-yl)-4-[1-(piperidin-4-yl)-1H-indol-3-yl]-pyrrole-2,5-dione], for which the IC50 in assay [2] was determined as 195 nM.
